According to patent US6303638A, “Substituted pyridines as modulators of the mammalian neuronal nicotinic acetylcholine receptor” (The Regents of the University of California, priority 1999, dated 2001):
Where “and” joins values, the source holds several entries; their conditions need not be identical. Equal values may be shown once. Read-outs that look alike come from different tables or passages of the source.

Experiments:
[1] = molecular target: T1, α4β2 nAChR (Rattus norvegicus, UniProt P09483+P12390); test: Inhibition of [3H](-)-nicotine binding to recombinant α4β2 nAChR
T1 construct: made in house; host or cells: Sf9 insect cells infected with each recombinant baculovirus stock; membrane preparation
Method: Representative compounds of the invention were investigated by way of the experimental protocol described below.
Production of recombinant α4β2 nAChR:
Recombinant baculovirus stocks containing inserts for the rat α4 and β2 nAChR subunits were independently amplified as described by Wang et al. (1996) J. Neurosci. Res. 44:350-354. Production of the α4β2 nAChR was achieved by infection of Sf9 insect cells with each recombinant viral stock. Cells were harvested 48-72 h post infection by centrifugation for 10 min at 100 g, then washed in a phosphate-bufferedsaline, and homogenized in a small volume of buffer (20 mM Tris-HCl, pH 7.4, 118 mM NaCl, […], 2.5 mM CaCl2, 1.2 mM MgSO4, and 1.0 mM EDTA), followed by centrifugation for 10 min at 300 g. The final step was centrifugation of the supernatant at 37000 g. The membrane pellet was resuspended in buffer and adjusted to 20 mg of total protein per 100 mL. These nAChR preparations were used immediately for binding assays or stored as single experiment aliquots at -80° C.
Reactions were terminated by addition of 3 mL ice-cold 0.9% NaCl followed by rapid vacuum filtration through filtermat B glass fiber filters and two 3-mL washes on the filter. Filters were pre-soaked at least 60 min in 0.1% w/v polyethyleneimine to reduce non-specific binding. […] The concentration of test compounds for 50% inhibition (IC50) was determined by iterative non-linear least-squares regression using the SigmaPlot program (Jandel Scientific Software, San Rafael, Calif.). The data reported are means±standard deviations with four determinations or are individual values for two determinations.

[2] = system: insect versus the mammalian nAChR; settings: Kagabu et al. (1997); Chao et al. (1997); cited from earlier work
[3] = system: humans; settings: administered into the human blood stream, even in relatively small amounts; cited from earlier work
[4] = system: humans; settings: taken orally; cited from earlier work
[5] = 1 nM [3H]nicotine, 30 min, 22° C., Sf9 cell membranes, means ± standard deviations, four determinations, read-out: Inhibition of [3H](-)-nicotine binding to α4β2 nAChR IC50
[6] = 1 nM [3H]nicotine, 30 min, 22° C., Sf9 cell membranes, individual values for two determinations, read-out: Inhibition of [3H](-)-nicotine binding to α4β2 nAChR IC50 (individual values for two determinations)

T1 sequence (P09483 31-630): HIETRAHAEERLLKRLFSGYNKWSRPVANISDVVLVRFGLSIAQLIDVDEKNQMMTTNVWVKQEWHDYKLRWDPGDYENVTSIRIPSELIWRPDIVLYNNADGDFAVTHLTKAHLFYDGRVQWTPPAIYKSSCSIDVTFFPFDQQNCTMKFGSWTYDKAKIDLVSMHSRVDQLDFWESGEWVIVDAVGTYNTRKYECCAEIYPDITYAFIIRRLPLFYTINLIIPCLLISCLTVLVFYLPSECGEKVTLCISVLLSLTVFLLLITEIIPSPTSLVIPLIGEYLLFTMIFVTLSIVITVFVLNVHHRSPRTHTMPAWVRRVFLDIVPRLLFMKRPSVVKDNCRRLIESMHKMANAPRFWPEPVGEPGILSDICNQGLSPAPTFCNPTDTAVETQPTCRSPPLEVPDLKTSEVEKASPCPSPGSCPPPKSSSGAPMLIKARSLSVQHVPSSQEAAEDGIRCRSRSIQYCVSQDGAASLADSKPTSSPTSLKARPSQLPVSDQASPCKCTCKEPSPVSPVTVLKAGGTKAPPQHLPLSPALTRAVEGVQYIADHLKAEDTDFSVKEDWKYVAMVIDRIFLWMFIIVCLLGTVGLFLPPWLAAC
T1 sequence (P12390 25-500): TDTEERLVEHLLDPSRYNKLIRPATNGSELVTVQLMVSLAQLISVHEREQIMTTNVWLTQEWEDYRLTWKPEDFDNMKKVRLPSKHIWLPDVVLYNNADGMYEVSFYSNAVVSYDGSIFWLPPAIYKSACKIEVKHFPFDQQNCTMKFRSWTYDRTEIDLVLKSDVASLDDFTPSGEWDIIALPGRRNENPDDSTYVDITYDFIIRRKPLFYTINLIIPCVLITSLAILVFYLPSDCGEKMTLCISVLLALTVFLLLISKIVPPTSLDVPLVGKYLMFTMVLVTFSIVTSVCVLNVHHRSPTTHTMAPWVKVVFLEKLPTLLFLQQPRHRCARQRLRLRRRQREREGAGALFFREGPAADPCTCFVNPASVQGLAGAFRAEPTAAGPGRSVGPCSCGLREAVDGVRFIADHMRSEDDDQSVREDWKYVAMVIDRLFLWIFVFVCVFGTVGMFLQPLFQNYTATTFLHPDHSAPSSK

For `N=C1SCCN1Cc1ccc(Cl)nc1` [Compound 3, 1-(^6 -Chloro-3-pyridinyl)methyl-2-iminothiazolidine], the IC50 [1, 5] was 2.3 ± 0.3 nM.
In the case of `N=C1NCCN1Cc1ccc(Cl)nc1` [1-[(6-chloro-3-pyridinyl)methyl]-2-imidazolidine], the “selectivity insect versus mammalian nAChR” value [2] is given as “selective for the mammalian versus the insect nAChR”.
With `N=C1CCCCN1Cc1ccc(Cl)nc1` [Compound 6, 1-[(6-Chloro-3-pyridinyl)methyl]-2-iminopiperidine] the IC50 [1, 5] was 11 ± 5 nM.
Work on `N=C1NCCCCN1Cc1ccc(Cl)nc1` [Compound 2, 1-[(6-Chloro-3-pyridinyl)methyl]-2-iminotetrahydrodiazepine] yielded an IC50 [1, 5] of 2.8 ± 1 nM.
With `Clc1ccc(CN2CCC2)cn1` [Compound 12, 1-(6-Chloro-3-pyridinyl)methylazetidine] the IC50 [1, 5] was 16 ± 14 nM.
Compound `N=C1SCCCN1Cc1ccc(Cl)nc1` [Compound 4, 1-[(6-Chloro-3-pyridinyl)methyl]-2-iminotetrahydrothiazine] has an IC50 [1, 5] of 14 ± 4 nM.
`Clc1ccc(CN2CCCC2)cn1` [Compound 13, 1-(^6 -Chloro-3-pyridinyl)methylpyrrolidine] showed an IC50 [1, 5] of 8.8 ± 2.8 nM.
In the case of `O=[N+]([O-])NC1=NCCN1Cc1ccc(Cl)nc1` [imidacloprid], the “selectivity insect versus mammalian nAChR” value [2] is given as “acts selectively at the insect versus the mammalian nAChR”.
For `N=C1NCCCN1Cc1ccc(Cl)nc1` [Compound 1, 1-(6-Chloro-3-pyridinyl)methyl-2-iminotetrahydropyrimidine], the IC50 [1] was 58 nM and the IC50 [1, 6] was 63 nM.
Compound `N=C1CCCN1Cc1ccc(Cl)nc1` [Compound 5, 1-(6-Chloro-3-pyridinyl)methyl-2-iminopyrrolidine] has an IC50 [1, 5] of 3.5 ± 0.7 nM.
Compound `N=c1sccn1Cc1ccc(Cl)nc1` [Compound 9, 1-(6-Chloro-3-pyridinyl)methyl-2-iminothiazole] has an IC50 [1, 5] of 0.91 ± 0.4 nM.
For `N=C1OCCN1Cc1ccc(Cl)nc1` [Compound 7, 1-[(6-Chloro-3-pyridinyl)methyl]-2-imino-1,3-oxazolidine], the IC50 [1, 5] was 7.2 ± 2 nM.
With `C[N+](C)(C)Cc1ccc(Cl)nc1` [Compound 10, 1-(6-Chloro-3-pyridinyl)methyl-1,1,1-trimethylammonium chloride] the IC50 [1, 6] was 16 nM and 20 nM.
With `CC[N+](CC)(CC)Cc1ccc(Cl)nc1` [Compound 11, 1-(6-Chloro-3-pyridinyl)methyl-1,1,1-triethylammonium chloride] the IC50 [1, 6] was 2400 nM and 3700 nM.
In the case of `CN1CCC[C@H]1c1cccnc1` [nicotine], the “central and peripheral effects of nicotine” value [3] is given as “fever, increased heart rate, trembling, nausea, increased blood pressure and convulsions” and the fatal oral dose [4] is given as 250 to 350 mg.
`N=c1[nH]ccn1Cc1ccc(Cl)nc1` [Compound 8, 1-[(6-Chloro-3-pyridinyl)methyl]-2-iminoimidazole] showed an IC50 [1, 5] of 23 ± 9 nM.
For `Clc1ccc(CN2CCCCC2)cn1` [Compound 14, 1-(^6 -Chloro-3-pyridinyl)methylpiperidine], the IC50 [1, 5] was 14 ± 3 nM.
